Assay results published in patent US20120130150A1, “APPARATUS AND METHOD OF TREATMENT UTILIZING A VARYING ELECTROMAGNETIC ENERGIZATION PROFILE” (International Scientific Pty Ltd., priority 2009, published 2012).
Where a name gives a salt, the structure may show the parent alone. Blank lines part the entries; values can stand above or below the compound they belong to.

Assays:
Format in all cases: in vitro ADME
[1] = Franz-type diffusion of 5-aminolevulinic acid through human epidermis; details: at 4 h; 2% w/v solution in PBS pH 7.4; with Dermaportation only (0-4 h)
Protocol: Overview: ALA solution was applied to the surface of human epidermis for a contact period of up to 4 h. Dermaportation applied continuously from 0 to 4 h was compared to passive diffusion. ALA penetrating the epidermis would diffuse into a receptor fluid of phosphate buffered saline (pH 7.4: PBS). The receptor fluid was analysed for ALA content by high performance liquid chromatography (HPLC).
In vitro epidermal penetration: Human skin was obtained following abdominoplasty surgery under existing approval from the Human Research Ethics Committee of Curtin University. Skin from a donor was used in this study. The epidermis was heat separated from the dermis using standard procedures (Kligman and Christophers 1963). The epidermis was mounted in Franz-type diffusion cells with the stratum corneum facing the donor compartment. Skin integrity was determined by conductance measurement.
The receptor compartment was filled with phosphate buffered saline pH 7.4, stirred continuously and maintained at 37° C. throughout the experiment. ALA solution (2% w/v of ALA in phosphate buffered saline pH 7.4) was applied to the donor side of the epidermis. Dermaportation (cycle 2) was applied from time 0 to 4 h. […] The content of ALA in receptor fluid samples was analysed by HPLC with ultraviolet detection using a validated assay procedure. […]

[2] = Franz-type diffusion of Voltaren Emulgel diclofenac through human epidermis, Dermaportation vs passive; details: for flux (skin penetration): PBS receptor, 37° C.; for cumulative amount penetrated: at 8 h
Protocol: Human epidermis was mounted in vertical Franz type diffusion cells (stratum corneum facing up), according to the method of Kligman and Christophers (1963). Voltaren Emulgel® (1 g containing 1.16% diclofenac diethylammonium salt; Novartis) was applied to the donor compartment of diffusion cells, with PBS in the receptor compartment (3.0 mL; stirred continuously; 37° C.). Dermaportation coils were placed around the exterior of 4 cells, with 4 additional cells without coils (passive control). Dermaportation energy was applied from time 30-60 min. Samples of the receptor solution were removed and replaced with fresh buffer over an 8 h period. All samples were analysed for diclofenac content by HPLC with UV detection by a validated method. The cumulative amount of diclofenac in receptor versus time was plotted and flux values calculated from the slopes per group. Statistical analyses used a t-test on the delta scores from the zero time point to the time point in question.

[3] = Franz-type diffusion of hydrocortisone through human epidermis, Dermaportation vs passive; details: for flux (skin penetration): saturated solution in 20:80 ethanol:PBS pH 7.4; for cumulative amount penetrated: at 30 min
Protocol: (§1) Human skin was obtained following abdominoplasty surgery under existing approval from the Human Research Ethics Committee of Curtin University.
(§2) The epidermis was heat separated from the dermis using standard procedures (Kligman and Christophers 1963). The epidermis was mounted in Franz-type diffusion cells with the stratum corneum facing the donor compartment. Skin integrity was determined by conductance measurement. The receptor compartment was filled with 20:80 ethanol:phosphate buffered saline pH 7.4, stirred continuously and maintained at 37° C. throughout the experiment. Hydrocortisone solution (1 mL of saturated solution in 20:80 ethanol:phosphate buffered saline pH 7.4; solubility approx 1 mg/mL) was applied to the donor side of the epidermis.
(§3) Dermaportation was applied from time 0 to 4 h. Samples were removed from the receptor fluid at time points up to 4 h. At each time point the receptor fluid volume was replaced with fresh receptor solution preheated to 37° C. Four Dermaportation cells and three passive cells (no Dermaportation) were conducted using skin from the abdominal region of a donor. The content of hydrocortisone in receptor fluid samples was analysed by HPLC with ultraviolet detection using a validated assay procedure.
The cumulative amount of hydrocortisone in receptor versus time was plotted and flux values calculated from the slopes per group.

[4] = Franz-type diffusion of naltrexone through human epidermis, Dermaportation vs passive; details: for flux0-2h (skin penetration): 0.5% w/v in PBS pH 7.4
Protocol: as §1
as §2, with “phosphate” for “20:80 ethanol:phosphate”, “Naltrexone (0.5% w/v)” for “Hydrocortisone solution (1 mL of saturated solution”, “(pH 7.4)” for “pH 7.4; solubility approx 1 mg/mL)”
as §3, with “up to 8 h. At” for “up to 4 h. At”, “cells and 4 passive cells” for “cells and three passive cells”, “content of naltrexone in receptor” for “content of hydrocortisone in receptor”
The cumulative amount of naltrexone in receptor versus time was plotted and flux values calculated from the slopes per group.

applied dose penetrated to the receptor [1]: approximately 40%
Compound: NCC(=O)CCC(=O)O [ALA, 5-aminolevulinic acid]

flux (skin penetration) ([2]; Dermaportation applied 30-60 min, Voltaren Emulgel 1 g (1.16% diclofenac diethylammonium salt)): 2.97 µg/h | cumulative amount penetrated ([2]; Dermaportation applied 30-60 min): 14.25 µg | cumulative amount penetrated ([2]; passive diffusion): 7.59 µg | flux (skin penetration) ([2]; passive administration, Voltaren Emulgel 1 g): 1.58 µg/h
Compound: O=C(O)Cc1ccccc1Nc1c(Cl)cccc1Cl [diclofenac, diclofenac diethylammonium salt]
diffusion level versus zero time point (t-test delta score) ([2]; passive diffusion, any time point up to 8 h): did not reach diffusion levels different from 0

flux (skin penetration) ([3]; Dermaportation 0-4 h): 2.44 μg/cm^2/h | cumulative amount penetrated ([3]; Dermaportation): 93.22 µg | cumulative amount penetrated ([3]; passive diffusion): 2.51 µg | flux (skin penetration) ([3]; passive administration): 0.08 μg/cm^2/h
Compound: C[C@]12CCC(=O)C=C1CC[C@@H]1[C@@H]2[C@@H](O)C[C@@]2(C)[C@H]1CC[C@]2(O)C(=O)CO [hydrocortisone, Hydrocortisone]

Compound: O=C1CC[C@@]2(O)[C@H]3Cc4ccc(O)c5c4[C@@]2(CCN3CC2CC2)[C@H]1O5 [naltrexone, Naltrexone]
flux0-2h (skin penetration) ([4]; Dermaportation 0-4 h): 152.6 μg/cm^2/h | diffusion with Dermaportation compared with passive administration ([4]; Dermaportation for 240 min, Time by Treat interaction p<0.05): diffused faster and in more quantity | flux0-2h (skin penetration) ([4]; passive administration): 1.6 μg/cm^2/h
